Article PMC11285371 (Journal of medicinal chemistry, 2023)
“And” between values parts separate entries of the source, which are not always exact repeats. Equal entries are not always repeated. “Also recorded” adds a separate entry of the source.

Tests used:
Mtb H37Rv::luxCDAB = assay type: cell-based, Mycobacterium tuberculosis
192 human kinases = settings: 10 μM, K192 NanoBRET panel
[1] = tested on: drug-tolerant Mtb persisters; assay type: cell-based, Mycobacterium tuberculosis
15 mammalian cell lines = settings: cited from earlier work
[2] = tested on: Cas1 glioblastoma cell line; settings: cited from earlier work
[3] = cited from earlier work
[4] = 0.5 h
in vivo = settings: CD1, mouse, po, 10 mg/kg, T1/2
TGFBR1 [5] = target: T1, TGFBR1 (Homo sapiens, UniProt P36897); assay type: biochemical
T1 sequence (P36897 34-503): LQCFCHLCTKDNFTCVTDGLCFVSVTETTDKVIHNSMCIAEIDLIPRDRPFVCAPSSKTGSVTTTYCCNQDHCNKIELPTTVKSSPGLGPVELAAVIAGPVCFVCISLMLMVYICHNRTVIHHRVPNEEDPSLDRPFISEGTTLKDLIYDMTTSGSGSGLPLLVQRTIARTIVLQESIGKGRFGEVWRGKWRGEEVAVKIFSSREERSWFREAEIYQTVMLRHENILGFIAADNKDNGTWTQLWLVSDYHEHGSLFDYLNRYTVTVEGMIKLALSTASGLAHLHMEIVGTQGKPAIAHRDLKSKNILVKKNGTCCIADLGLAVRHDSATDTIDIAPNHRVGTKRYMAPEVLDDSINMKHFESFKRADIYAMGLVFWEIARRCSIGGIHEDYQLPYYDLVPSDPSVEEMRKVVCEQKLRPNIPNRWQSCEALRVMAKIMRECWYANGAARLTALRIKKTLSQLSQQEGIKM

[6] = tested on: Mtb H37Rv strain expressing GFP; test: microbe, parasite or virus in culture; assay type: cell-based; settings: Mycobacterium tuberculosis
TGFBR1 [7] = target: T1, TGFBR1; test: TGFBR1 DiscoverX KINOMEscan binding assay

Row | Compound | activity in the Mtb assay (in words) (Mtb H37Rv::luxCDAB) | metabolic stability in mouse liver microsomes (in words) [4] | further results
1 | Cc1cccc(-c2nc(Nc3ccncc3)c3ccn(C)c3n2)n1 [compound 43] | retained potent Mtb activity; also recorded: matched the activity of AQA in the Mtb assay; also recorded: low-micromolar activity against nonreplicating Mtb | – | additional human kinases on which the compound was active (192 human kinases): 7/192
2 | Cc1cccc(-c2nc(Nc3ccncc3)c3ccccc3n2)n1 [AQA] | – | – | killing of persisters (cfu, in words) [1]: further reduction of viable bacteria; also recorded: full activity against persisters; toxicity against mammalian cell lines (in words) (15 mammalian cell lines): minimal toxicity; toxicity against Cas1 glioblastoma cell line (in words) [2]: moderate toxicity; acute toxicity (in words) ([3]; 5 mg/kg p.o. in rats): no acute toxicity; bioavailability (in words) ([3]; 5 mg/kg p.o. in rats): poor; oral bioavailability (in words) ([3]; rats): modest oral bioavailability
3 | c1ccc2c(Nc3ccncc3)nc(-c3cnccn3)nc2c1 [compound 31] | greatly reduced Mtb activity | – | –
4 | COc1cccc(-c2nc(Nc3ccncc3)c3ccccc3n2)n1 [compound 28] | greatly reduced activity | – | –
5 | Cc1cccc(-c2nc(Nc3ccc4c(c3)ncn4C)c3ccccc3n2)n1 [compound 10] | – | – | antibacterial activity against nonreplicating Mtb (in words, relative to AQA) (Mtb H37Rv::luxCDAB): reduced bactericidal activity
6 | c1cnc(-c2nc(Nc3ccncc3)c3ccccc3n2)nc1 [compound 33] | greatly reduced Mtb activity | – | –
7 | COc1ccc2nc(-c3cccc(C)n3)nc(Nc3ccncc3)c2c1 [compound 40] | retained both potent bactericidal activity and TGFBR1 enzyme inhibition at 1 and 10 μM; also recorded: matched the activity of AQA in the Mtb assay | improved metabolic stability | –
8 | Cc1cccc(-c2nc(Nc3ccc4[nH]ncc4c3)c3ccccc3n2)n1 [compound 11] | – | very low metabolic stability | –
9 | Cc1cccc(-c2cc3ccccc3c(Nc3ccncc3)n2)n1 [compound 45] | weaker activity | – | –
10 | Cc1cccc(-c2cc(Nc3ccncc3)c3ccccc3n2)n1 [compound 46] | weaker activity | – | –
11 | CC[C@@H](CO)NCCN[C@@H](CC)CO [EMB, ethambutol] | – | – | killing of persisters (cfu, in words) [1]: did not increase the level of killing by RIF and INH further
12 | FC(F)(F)c1cccc(-c2nc(Nc3ccncc3)c3ccccc3n2)n1 [compound 27] | reduced activity | – | –
13 | Cc1cccc(-c2nc(Nc3ccc4nn(C)nc4c3)c3ccccc3n2)n1 [compound 16] | – | – | half-life (in vivo): > 3 h
14 | Cc1cccc(-c2nc(C)cc(Nc3ccncc3)n2)n1 [compound 44] | retained partial Mtb and TGFBR1 activity | – | TGFBR1 enzyme inhibition (in words) (TGFBR1 [5]): retained partial Mtb and TGFBR1 activity
15 | Cc1cccc(-c2nc(Nc3ccc4nn[nH]c4c3)c3ccccc3n2)n1 [compound 14] | – | – | antibacterial activity against nonreplicating Mtb (in words, relative to AQA) (Mtb H37Rv::luxCDAB): reduced bactericidal activity
16 | Cc1cccc(-c2nc(Nc3ccncc3)c3cc(O)ccc3n2)n1 [compound 41] | less active | improved metabolic stability | –
17 | COc1ccc2c(Nc3ccncc3)nc(-c3cccc(C)n3)nc2c1 [compound 42] | less active | – | –
18 | Cc1cccc(-c2nc(Nc3ccc4ccsc4c3)c3ccccc3n2)n1 [compound 22] | – | very low metabolic stability | –
19 | c1ccc(-c2nc(Nc3ccncc3)c3ccccc3n2)nc1 [compound 29] | reduced activity | comparable | –
20 | Cc1cccc(-c2nc(Nc3ccc4nnn(C)c4c3)c3ccccc3n2)n1 [compound 17] | – | very low metabolic stability | –
21 | COc1cncc(-c2nc(Nc3ccncc3)c3ccccc3n2)n1 [compound 32] | greatly reduced Mtb activity | – | –
22 | Fc1cccc(-c2nc(Nc3ccncc3)c3ccccc3n2)n1 [compound 26] | reduced activity | – | –
23 | Cc1cccc(-c2nc(Nc3ccc4c(cnn4C)c3)c3ccccc3n2)n1 [compound 12] | – | very low metabolic stability | –
24 | c1cncc(-c2nc(Nc3ccncc3)c3ccccc3n2)c1 [compound 30] | inactive | – | –
25 | Clc1cccc(-c2nc(Nc3ccncc3)c3ccccc3n2)n1 [compound 25] | retained potent antibacterial activity; also recorded: matched the activity of AQA in the Mtb assay | comparable | –
26 | NNC(=O)c1ccncc1 [isoniazid] | – | – | MIC [6]: 3.6 µM and 0.5 µg/mL
27 | Cc1cccc(-c2nc(Nc3ccc4nc(C)sc4c3)c3ccccc3n2)n1 [compound 7] | – | very low metabolic stability | TGFBR1 binding activity (in words) (TGFBR1 [7]): lost activity against TGFBR1
28 | Cc1csc(-c2nc(Nc3ccncc3)c3ccccc3n2)n1 [compound 39] | lost activity against Mtb | – | –
